Legend:
[1] = target: Interleukin enhancer-binding factor 2 (Homo sapiens) (UniProt Q12905)
[2] = target: ADP-ribosylation factor-like protein 1 (Homo sapiens) (UniProt P40616)
[3] = target: Endoplasmic reticulum aminopeptidase 1 (Homo sapiens) (UniProt Q9NZ08)
[4] = target: Deoxyribose-phosphate aldolase (Homo sapiens) (UniProt Q9Y315)
[5] = target: Carnitine O-palmitoyltransferase 1, liver isoform (Homo sapiens) (UniProt P50416)
[6] = target: FACT complex subunit SPT16 (Homo sapiens) (UniProt Q9Y5B9)
[7] = target: Thiol S-methyltransferase TMT1A (Homo sapiens) (UniProt Q9H8H3)
[8] = target: DNA replication licensing factor MCM6 (Homo sapiens) (UniProt Q14566)
[9] = target: Programmed cell death protein 6 (Homo sapiens) (UniProt O75340)
[10] = target: Protein unc-119 homolog A (Homo sapiens) (UniProt Q13432)
Ataxin-10 (Homo sapiens) = Ataxin-10 (Homo sapiens) (UniProt Q9UBB4)
[11] = target: Pyridoxal kinase (Homo sapiens) (UniProt O00764)
[12] = target: ATP synthase peripheral stalk subunit d, mitochondrial (Homo sapiens) (UniProt O75947)
[13] = target: ATP synthase F(0) complex subunit k, mitochondrial (Homo sapiens) (UniProt Q96IX5)
[14] = target: 5'-AMP-activated protein kinase subunit beta-2 (Homo sapiens) (UniProt O43741)
[15] = target: RuvB-like 2 (Homo sapiens) (UniProt Q9Y230)
[16] = target: Peroxiredoxin-2 (Homo sapiens) (UniProt P32119)
[17] = target: Transmembrane protein 161A (Homo sapiens) (UniProt Q9NX61)
[18] = target: Serine/threonine-protein phosphatase 6 regulatory subunit 1 (Homo sapiens) (UniProt Q9UPN7)
[19] = target: Ribosome-binding protein 1 (Homo sapiens) (UniProt Q9P2E9)
[20] = target: Cyclin-dependent kinase 13 (Homo sapiens) (UniProt Q14004)
[21] = target: Probable ATP-dependent RNA helicase DDX17 (Homo sapiens) (UniProt Q92841)
[22] = target: Antigen peptide transporter 2 (Homo sapiens) (UniProt Q03519)
[23] = target: GSK3B-interacting protein (Homo sapiens) (UniProt Q9P0R6)
[24] = target: Serine/threonine-protein kinase N2 (Homo sapiens) (UniProt Q16513)
[25] = target: Delta(14)-sterol reductase LBR (Homo sapiens) (UniProt Q14739)
[26] = target: Growth factor receptor-bound protein 2 (Homo sapiens) (UniProt P62993)
[27] = target: T-complex protein 1 subunit zeta (Homo sapiens) (UniProt P40227)
[28] = target: Ras-related protein Rab-7a (Homo sapiens) (UniProt P51149)
[29] = target: Mitogen-activated protein kinase 14 (Homo sapiens) (UniProt Q16539)
[30] = target: dCTP pyrophosphatase 1 (Homo sapiens) (UniProt Q9H773)
[31] = target: Mitochondrial-processing peptidase subunit beta (Homo sapiens) (UniProt O75439)
Homo sapiens [32] = species: Homo sapiens
[33] = target: Large ribosomal subunit protein uL29 (Homo sapiens) (UniProt P42766)
[34] = target: Glyceraldehyde-3-phosphate dehydrogenase (Homo sapiens) (UniProt P04406)
[35] = target: Hematopoietic lineage cell-specific protein (Homo sapiens) (UniProt P14317)
[36] = target: Large ribosomal subunit protein eL13 (Homo sapiens) (UniProt P26373)
[37] = target: Deoxynucleoside triphosphate triphosphohydrolase SAMHD1 (Homo sapiens) (UniProt Q9Y3Z3)
[38] = target: Ribosomal protein S6 kinase alpha-6 (Homo sapiens) (UniProt Q9UK32)
[39] = target: Casein kinase I isoform gamma-1 (Homo sapiens) (UniProt Q9HCP0)
[40] = target: DnaJ homolog subfamily C member 10 (Homo sapiens) (UniProt Q8IXB1)
[41] = target: Calponin-2 (Homo sapiens) (UniProt Q99439)
[42] = target: 26S proteasome regulatory subunit 10B (Homo sapiens) (UniProt P62333)
[43] = target: Transcriptional regulator protein Pur-beta (Homo sapiens) (UniProt Q96QR8)
[44] = target: AP-2 complex subunit beta (Homo sapiens) (UniProt P63010)
Homo sapiens [45] = species: Homo sapiens; remark: listed apart in the source
Homo sapiens [46] = species: Homo sapiens; remark: listed apart in the source
Note: assay method not described here.

Sequence of AP-2 complex subunit beta (Homo sapiens) (P63010 whole entry, one chain of several): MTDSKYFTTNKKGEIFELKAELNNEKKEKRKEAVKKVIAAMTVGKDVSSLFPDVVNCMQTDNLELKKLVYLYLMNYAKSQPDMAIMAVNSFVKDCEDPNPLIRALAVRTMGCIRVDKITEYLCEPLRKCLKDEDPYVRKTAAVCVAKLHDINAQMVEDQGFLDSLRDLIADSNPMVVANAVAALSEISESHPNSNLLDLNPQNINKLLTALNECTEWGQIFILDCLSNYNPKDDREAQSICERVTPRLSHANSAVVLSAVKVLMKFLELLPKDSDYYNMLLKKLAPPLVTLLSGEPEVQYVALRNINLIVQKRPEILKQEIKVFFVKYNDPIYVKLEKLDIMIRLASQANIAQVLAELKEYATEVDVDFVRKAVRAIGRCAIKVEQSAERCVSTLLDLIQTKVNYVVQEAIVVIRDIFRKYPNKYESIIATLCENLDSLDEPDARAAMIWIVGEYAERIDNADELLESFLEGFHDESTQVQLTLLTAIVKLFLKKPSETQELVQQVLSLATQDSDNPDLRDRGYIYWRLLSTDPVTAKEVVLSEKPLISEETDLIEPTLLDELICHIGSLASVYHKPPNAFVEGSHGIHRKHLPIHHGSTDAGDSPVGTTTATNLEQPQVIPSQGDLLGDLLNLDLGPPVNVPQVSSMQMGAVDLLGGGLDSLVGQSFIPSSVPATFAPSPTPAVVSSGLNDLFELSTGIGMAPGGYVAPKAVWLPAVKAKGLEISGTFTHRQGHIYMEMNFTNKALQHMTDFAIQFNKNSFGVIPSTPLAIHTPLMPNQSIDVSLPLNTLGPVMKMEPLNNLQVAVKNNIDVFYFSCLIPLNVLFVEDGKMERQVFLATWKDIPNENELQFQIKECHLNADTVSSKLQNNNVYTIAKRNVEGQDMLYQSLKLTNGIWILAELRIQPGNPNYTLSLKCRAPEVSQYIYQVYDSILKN
Sequence of Probable ATP-dependent RNA helicase DDX17 (Homo sapiens) (Q92841 whole entry): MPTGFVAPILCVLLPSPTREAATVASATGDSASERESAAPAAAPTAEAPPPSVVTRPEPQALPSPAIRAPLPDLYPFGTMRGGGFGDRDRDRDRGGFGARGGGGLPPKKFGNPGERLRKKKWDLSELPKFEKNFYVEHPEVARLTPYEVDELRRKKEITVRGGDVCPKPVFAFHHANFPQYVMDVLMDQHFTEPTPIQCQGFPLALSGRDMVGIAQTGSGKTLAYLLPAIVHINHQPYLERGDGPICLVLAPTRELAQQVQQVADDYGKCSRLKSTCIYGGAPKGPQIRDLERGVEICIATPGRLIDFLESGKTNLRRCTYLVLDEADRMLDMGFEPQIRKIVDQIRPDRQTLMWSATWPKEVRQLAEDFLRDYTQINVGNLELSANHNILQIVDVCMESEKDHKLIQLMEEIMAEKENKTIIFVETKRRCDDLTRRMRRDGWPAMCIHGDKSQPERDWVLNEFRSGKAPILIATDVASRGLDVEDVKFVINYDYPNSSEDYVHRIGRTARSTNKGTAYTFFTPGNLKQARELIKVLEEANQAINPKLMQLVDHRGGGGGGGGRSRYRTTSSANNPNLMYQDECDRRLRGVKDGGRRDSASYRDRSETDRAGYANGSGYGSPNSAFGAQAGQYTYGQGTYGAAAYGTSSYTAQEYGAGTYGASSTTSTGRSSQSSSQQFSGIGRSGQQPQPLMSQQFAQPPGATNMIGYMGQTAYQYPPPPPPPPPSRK
Sequence of Ribosomal protein S6 kinase alpha-6 (Homo sapiens) (Q9UK32 whole entry, canonical isoform): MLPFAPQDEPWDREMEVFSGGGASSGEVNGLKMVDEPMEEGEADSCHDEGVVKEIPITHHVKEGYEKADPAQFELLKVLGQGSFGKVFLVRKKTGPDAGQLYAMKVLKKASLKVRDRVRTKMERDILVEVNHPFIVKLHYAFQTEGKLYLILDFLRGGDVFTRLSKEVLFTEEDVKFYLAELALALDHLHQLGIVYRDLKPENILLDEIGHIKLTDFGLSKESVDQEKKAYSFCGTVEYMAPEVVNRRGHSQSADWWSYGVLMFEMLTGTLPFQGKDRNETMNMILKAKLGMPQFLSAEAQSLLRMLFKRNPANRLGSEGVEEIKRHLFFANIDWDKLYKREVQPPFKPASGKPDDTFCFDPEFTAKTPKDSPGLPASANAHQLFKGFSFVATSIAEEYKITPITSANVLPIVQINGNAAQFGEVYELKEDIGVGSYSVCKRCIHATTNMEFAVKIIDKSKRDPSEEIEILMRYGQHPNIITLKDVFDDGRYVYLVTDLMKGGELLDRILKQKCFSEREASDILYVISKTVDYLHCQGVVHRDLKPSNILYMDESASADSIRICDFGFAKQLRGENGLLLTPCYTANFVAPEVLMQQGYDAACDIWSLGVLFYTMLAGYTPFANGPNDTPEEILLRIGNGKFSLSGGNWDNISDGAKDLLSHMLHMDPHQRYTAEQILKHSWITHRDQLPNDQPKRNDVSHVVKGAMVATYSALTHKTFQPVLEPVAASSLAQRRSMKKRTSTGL
Sequence of Pyridoxal kinase (Homo sapiens) (O00764 whole entry): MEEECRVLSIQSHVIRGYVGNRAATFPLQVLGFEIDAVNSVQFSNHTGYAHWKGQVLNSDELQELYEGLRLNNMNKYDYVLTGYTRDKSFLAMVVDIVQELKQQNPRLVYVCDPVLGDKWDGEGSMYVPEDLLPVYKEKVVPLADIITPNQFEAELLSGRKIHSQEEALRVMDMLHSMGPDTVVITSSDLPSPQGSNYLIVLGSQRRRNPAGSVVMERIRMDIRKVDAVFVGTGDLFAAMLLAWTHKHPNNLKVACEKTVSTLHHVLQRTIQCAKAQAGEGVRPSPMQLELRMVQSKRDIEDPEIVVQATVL
Sequence of Transmembrane protein 161A (Homo sapiens) (Q9NX61 whole entry): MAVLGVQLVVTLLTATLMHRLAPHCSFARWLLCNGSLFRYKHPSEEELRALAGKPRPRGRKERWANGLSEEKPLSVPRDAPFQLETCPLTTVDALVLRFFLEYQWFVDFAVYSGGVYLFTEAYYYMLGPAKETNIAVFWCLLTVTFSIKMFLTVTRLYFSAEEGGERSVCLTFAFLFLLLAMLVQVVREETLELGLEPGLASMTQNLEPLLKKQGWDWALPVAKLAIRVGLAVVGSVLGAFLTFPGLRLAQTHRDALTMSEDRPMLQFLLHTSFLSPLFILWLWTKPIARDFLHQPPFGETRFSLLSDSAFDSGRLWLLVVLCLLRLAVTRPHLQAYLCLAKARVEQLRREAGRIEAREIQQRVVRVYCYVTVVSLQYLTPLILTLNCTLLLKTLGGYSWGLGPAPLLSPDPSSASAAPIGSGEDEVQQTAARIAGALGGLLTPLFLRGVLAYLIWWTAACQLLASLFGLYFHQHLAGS
Sequence of DNA replication licensing factor MCM6 (Homo sapiens) (Q14566 whole entry): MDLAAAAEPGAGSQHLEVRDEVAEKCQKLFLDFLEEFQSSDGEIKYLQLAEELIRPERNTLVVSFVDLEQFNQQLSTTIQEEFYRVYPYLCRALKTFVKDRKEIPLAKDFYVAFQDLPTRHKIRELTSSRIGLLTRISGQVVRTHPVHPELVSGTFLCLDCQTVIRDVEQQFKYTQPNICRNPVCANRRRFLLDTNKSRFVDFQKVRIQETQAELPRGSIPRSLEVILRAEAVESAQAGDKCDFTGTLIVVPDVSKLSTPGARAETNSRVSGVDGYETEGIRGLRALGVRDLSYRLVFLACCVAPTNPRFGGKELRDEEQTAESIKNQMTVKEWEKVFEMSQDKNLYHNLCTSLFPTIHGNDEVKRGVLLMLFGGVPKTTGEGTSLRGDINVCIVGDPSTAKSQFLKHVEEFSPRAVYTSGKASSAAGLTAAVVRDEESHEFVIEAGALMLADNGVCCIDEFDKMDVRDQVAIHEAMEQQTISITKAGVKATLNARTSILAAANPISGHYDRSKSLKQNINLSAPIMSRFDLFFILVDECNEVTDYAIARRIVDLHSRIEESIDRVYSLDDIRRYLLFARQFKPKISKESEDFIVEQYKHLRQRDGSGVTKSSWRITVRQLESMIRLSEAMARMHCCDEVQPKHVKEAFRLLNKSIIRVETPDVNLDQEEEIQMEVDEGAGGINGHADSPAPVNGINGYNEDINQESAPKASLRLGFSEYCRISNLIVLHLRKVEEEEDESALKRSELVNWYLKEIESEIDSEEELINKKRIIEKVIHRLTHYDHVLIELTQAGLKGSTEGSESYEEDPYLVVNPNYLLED
Sequence of Endoplasmic reticulum aminopeptidase 1 (Homo sapiens) (Q9NZ08 whole entry): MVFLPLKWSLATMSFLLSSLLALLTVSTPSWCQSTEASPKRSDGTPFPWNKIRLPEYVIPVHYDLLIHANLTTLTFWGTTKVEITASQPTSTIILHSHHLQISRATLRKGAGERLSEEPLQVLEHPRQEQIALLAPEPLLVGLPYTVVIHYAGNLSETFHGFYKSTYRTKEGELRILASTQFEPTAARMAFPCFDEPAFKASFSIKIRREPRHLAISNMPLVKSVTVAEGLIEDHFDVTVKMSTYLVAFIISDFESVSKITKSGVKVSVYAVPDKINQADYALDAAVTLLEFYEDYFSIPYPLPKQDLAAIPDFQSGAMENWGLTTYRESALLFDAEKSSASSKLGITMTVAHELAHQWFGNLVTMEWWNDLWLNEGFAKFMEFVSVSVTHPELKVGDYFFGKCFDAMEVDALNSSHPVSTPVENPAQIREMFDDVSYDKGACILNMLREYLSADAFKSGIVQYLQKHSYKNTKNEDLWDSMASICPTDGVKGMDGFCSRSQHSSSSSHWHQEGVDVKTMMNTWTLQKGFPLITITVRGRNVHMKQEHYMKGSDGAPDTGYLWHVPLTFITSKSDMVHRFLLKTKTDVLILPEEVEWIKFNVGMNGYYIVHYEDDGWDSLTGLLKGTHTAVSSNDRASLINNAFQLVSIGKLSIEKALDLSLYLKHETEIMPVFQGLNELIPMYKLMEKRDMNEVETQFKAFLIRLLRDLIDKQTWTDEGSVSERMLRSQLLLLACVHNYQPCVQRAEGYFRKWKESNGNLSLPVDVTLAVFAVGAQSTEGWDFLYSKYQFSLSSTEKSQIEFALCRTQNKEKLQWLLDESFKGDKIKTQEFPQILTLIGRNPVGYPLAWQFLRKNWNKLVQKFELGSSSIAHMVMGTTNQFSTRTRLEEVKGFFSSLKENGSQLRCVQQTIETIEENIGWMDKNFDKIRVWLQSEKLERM
Sequence of ATP synthase F(0) complex subunit k, mitochondrial (Homo sapiens) (Q96IX5 whole entry, one chain of several): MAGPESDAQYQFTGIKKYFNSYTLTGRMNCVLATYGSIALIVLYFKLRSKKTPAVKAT

SMILES: Cc1ccc(C(=O)Nc2cccc(C(F)(F)F)c2)cc1Nc1nc(-c2cccnc2)nc2nn(C)cc12
- ED50 [1]: 0.0135 µM
- ED50 [2]: 2.85 µM
- ED50 [3]: 8.49 µM
- ED50 [4]: 2.45 µM
- ED50 [5]: 0.0676 µM
- ED50 [6]: 0.149 µM
- ED50 [7]: 2.97 µM
- ED50 [8]: 0.343 µM
- ED50 [9]: 1.04 µM
- ED50 [10]: 47.8 µM
- ED50 (Ataxin-10 (Homo sapiens)): 1470 µM
- ED50 [11]: 1.19 µM
- ED50 [12]: 0.0557 µM
- ED50 [13]: 0.0812 µM
- ED50 [14]: 0.0168 µM
- ED50 [15]: 0.0478 µM
- ED50 [16]: 6.92 µM
- ED50 [17]: 0.434 µM
- ED50 [18]: 0.00142 µM
- ED50 [19]: 0.277 µM
- ED50 [20]: 8.22 µM
- ED50 [21]: 16.2 µM
- ED50 [22]: 0.0871 µM
- ED50 [23]: 1.81 µM
- ED50 [24]: 0.0506 µM
- ED50 [25]: 0.0816 µM
- ED50 [26]: 0.821 µM
- ED50 [27]: 0.677 µM
- ED50 [28]: 0.44 µM
- ED50 [29]: 18.2 µM
- ED50 [30]: 0.0305 µM
- ED50 [31]: 0.0476 µM
- ED50 (Homo sapiens [32]): 0.285 µM
- ED50 [33]: 0.00771 µM
- ED50 [34]: 0.0602 µM
- ED50 [35]: 3210 µM
- ED50 [36]: 0.0196 µM
- ED50 [37]: 12.8 µM
- ED50 [38]: 20400 µM
- ED50 [39]: 3.41 µM
- ED50 [40]: 3.27 µM
- ED50 [41]: 79.2 µM
- ED50 [42]: 0.164 µM
- ED50 [43]: 0.0202 µM
- ED50 [44]: 0.331 µM
- ED50 (Homo sapiens [45]): 0.0569 µM
- ED50 (Homo sapiens [46]): 13.1 µM

SMILES: Cc1ccc(C(=O)Nc2cccc(C(F)(F)F)c2)cc1Nc1nc(-c2cccnc2)nc2c1cnn2C
- ED50 [1]: 4.54 µM
- ED50 [2]: 0.000716 µM
- ED50 [3]: 6.22 µM
- ED50 [4]: 3.14 µM
- ED50 [5]: 0.0014 µM
- ED50 [6]: 0.0046 µM
- ED50 [7]: 30.4 µM
- ED50 [8]: 11.1 µM
- ED50 [9]: 1.36 µM
- ED50 [10]: 0.46 µM
- ED50 (Ataxin-10 (Homo sapiens)): 0.103 µM
- ED50 [11]: 0.00509 µM
- ED50 [12]: 0.0727 µM
- ED50 [13]: 128 µM
- ED50 [14]: 0.0527 µM
- ED50 [15]: 5000 µM
- ED50 [16]: 8 µM
- ED50 [17]: 0.044 µM
- ED50 [18]: 10.4 µM
- ED50 [19]: 11.3 µM
- ED50 [20]: 17.8 µM
- ED50 [21]: 0.126 µM
- ED50 [22]: 10.3 µM
- ED50 [23]: 0.0291 µM
- ED50 [24]: 0.0969 µM
- ED50 [25]: 5.78 µM
- ED50 [26]: 0.0534 µM
- ED50 [27]: 5.44 µM
- ED50 [28]: 6.59 µM
- ED50 [29]: 1 µM
- ED50 [30]: 5.18 µM
- ED50 [31]: 10.5 µM
- ED50 (Homo sapiens [32]): 3.75 µM
- ED50 [33]: 64.9 µM
- ED50 [34]: 8.39 µM
- ED50 [35]: 0.0299 µM
- ED50 [36]: 13.9 µM
- ED50 [37]: 0.00363 µM
- ED50 [38]: 0.735 µM
- ED50 [39]: 0.27 µM
- ED50 [40]: 4930 µM
- ED50 [41]: 85.5 µM
- ED50 [42]: 43.4 µM
- ED50 [43]: 0.00796 µM
- ED50 [44]: 11.9 µM
- ED50 (Homo sapiens [45]): 33.9 µM
- ED50 (Homo sapiens [46]): 8.11 µM

Reference: ChEMBL document CHEMBL5649169 (ChemMedChem, 2018)
